Results from patent publication US20140221374A1, “RAF KINASE INHIBITORS” (Ruga Corporation, priority 2011, published 2014).

How the values were obtained:
[1] = tested on: A375 cells (V600E activated B-RAF); experiment: In vitro tumor cell growth inhibition, MTT, 72 hours; type: cell-based; details: Homo sapiens, A-375, 72 hours incubation
Procedure: Briefly, growth inhibition of cells containing V600E activated B-RAF (A375, Colo205) versus cell lines with wild-type B-RAF (A431) were measured under anchorage-dependent conditions using MTT (3-(4,5-dimethylthiazol-2-yl)-2,5-diphenyltetrazolium bromide), following 72 hours incubation with either compound or vehicle, as previously described (Haass, N. K., et al., Clinical Cancer Res., 14: 230-239, 2008): Cell lines are obtained from the American Type Tissue Culture Collection (Maryland, USA) and cultured in media containing heat-inactivated 10% fetal bovine serum. Cell cultures were also maintained in 10 U/mL, penicillin, 100 μg/mL streptomycin and 2 mM glutamine. At least triplicate determinations for each individual test compound concentration were made and data plotted as mean±standard deviation relative to the control vehicle.

wild-type C-RAF = wild-type C-RAF (Homo sapiens, UniProt P04049); experiment: In vitro assay for inhibition of RAF kinases (recombinant wild-type C-RAF, MEK (K97R) substrate); type: biochemical; details: 10 nM recombinant wild-type C-RAF
Procedure: (§1) The ability of compounds described herein to inhibit RAF kinase activity were determined from biochemical kinase inhibition assays using recombinant RAF proteins as known in the art.
Solutions of varying concentrations of test compounds or vehicle were added to 10 nM recombinant wild-type A-RAF, wild-type B-RAF, or wild-type C-RAF proteins incubated in the presence of different concentrations of ATP and 1 μM MEK (K97R) as substrate, as previously described (Wilhelm, S. M., et al., Cancer Res., 64: 7099-7109, 2004; Mason, C S., et al., EMBO J. 18: 2137-2148, 1999; Marais, R., et al., J. Biol. Chem., 272: 4378-4383, 1997). At least triplicate determinations for each individual test compound concentration were made and data plotted as mean±standard deviation relative to the control vehicle.

V600E-mutated B-RAF = V600E-mutated B-RAF (Homo sapiens, UniProt P15056, V600E); experiment: In vitro assay for inhibition of mutant B-RAF kinase (recombinant V600E-mutated B-RAF, MEK (K97R) substrate); type: biochemical; details: 10 nM recombinant V600E-mutated B-RAF
Procedure: as §1
Solutions of varying concentrations of test compounds or vehicle were added to 10 nM recombinant V600E-mutated B-RAF proteins incubated in the presence of different concentrations of ATP and […] (K97R) as substrate, as previously described (Wilhelm, S. M., et al., Cancer Res., 64: 7099-7109, 2004; Mason, C. S., et al.; EMBO J. 18: 2137-2.148, 1999; Marais, R., et al., J. Biol. Chem., 272: 4378-4383, 1997). At least triplicate determinations for each individual test compound concentration were made and data plotted as mean±standard deviation relative to the control vehicle.

V600E-mutated B-RAF, sequence (P15056 whole entry V600E): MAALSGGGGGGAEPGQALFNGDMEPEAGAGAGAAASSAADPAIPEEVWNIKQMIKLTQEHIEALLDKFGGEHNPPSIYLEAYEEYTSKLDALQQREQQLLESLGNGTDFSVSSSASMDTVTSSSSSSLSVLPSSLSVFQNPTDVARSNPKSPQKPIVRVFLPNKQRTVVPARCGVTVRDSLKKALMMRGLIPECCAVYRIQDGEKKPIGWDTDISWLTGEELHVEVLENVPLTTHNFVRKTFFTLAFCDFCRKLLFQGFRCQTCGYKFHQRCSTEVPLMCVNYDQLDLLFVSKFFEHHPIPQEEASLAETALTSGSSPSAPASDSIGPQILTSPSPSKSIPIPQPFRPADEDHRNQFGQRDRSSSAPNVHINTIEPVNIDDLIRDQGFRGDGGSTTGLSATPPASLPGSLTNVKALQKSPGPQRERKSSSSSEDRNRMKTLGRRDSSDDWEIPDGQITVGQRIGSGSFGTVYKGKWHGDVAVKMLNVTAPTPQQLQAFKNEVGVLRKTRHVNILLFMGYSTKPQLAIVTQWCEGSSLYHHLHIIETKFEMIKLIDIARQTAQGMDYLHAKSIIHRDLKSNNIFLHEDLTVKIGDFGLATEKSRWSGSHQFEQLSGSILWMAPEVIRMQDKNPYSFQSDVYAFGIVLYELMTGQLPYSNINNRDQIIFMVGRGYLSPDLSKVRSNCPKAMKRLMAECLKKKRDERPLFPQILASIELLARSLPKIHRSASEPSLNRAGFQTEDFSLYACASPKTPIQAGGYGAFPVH
wild-type C-RAF, sequence (P04049 whole entry): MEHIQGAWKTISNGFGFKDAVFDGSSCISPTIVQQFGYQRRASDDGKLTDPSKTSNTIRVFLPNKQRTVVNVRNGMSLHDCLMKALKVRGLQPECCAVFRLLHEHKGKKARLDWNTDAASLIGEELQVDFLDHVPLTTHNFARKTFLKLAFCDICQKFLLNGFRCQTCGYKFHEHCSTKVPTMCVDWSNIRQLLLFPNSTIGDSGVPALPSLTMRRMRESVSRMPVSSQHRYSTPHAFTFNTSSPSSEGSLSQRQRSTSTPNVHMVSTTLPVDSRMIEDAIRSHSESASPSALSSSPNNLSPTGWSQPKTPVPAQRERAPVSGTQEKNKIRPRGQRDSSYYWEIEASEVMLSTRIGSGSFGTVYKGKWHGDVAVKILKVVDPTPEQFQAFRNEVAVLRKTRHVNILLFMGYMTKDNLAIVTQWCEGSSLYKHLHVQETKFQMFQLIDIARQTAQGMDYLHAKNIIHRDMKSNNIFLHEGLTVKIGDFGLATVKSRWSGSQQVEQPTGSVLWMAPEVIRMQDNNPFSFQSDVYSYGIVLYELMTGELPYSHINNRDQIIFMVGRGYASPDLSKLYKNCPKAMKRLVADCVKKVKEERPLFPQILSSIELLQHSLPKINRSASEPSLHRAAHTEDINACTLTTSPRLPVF

SMILES | IC50 [1] | IC50 (wild-type C-RAF) | IC50 (V600E-mutated B-RAF)
Cc1ccc(NC(=O)Nc2cccc(-c3sc(C)nc3-c3ccncc3)c2)cc1 [Example 1, 1-[3-(2-Methyl-4-pyridin-4-yl-thiazol-5-yl)-phenyl]-3-p-tolyl-urea] | > 10 µM | 1 to 10 µM | ≤ 0.1 µM
Cc1ccc(NC(=O)Nc2cc(-c3sc(C)nc3-c3ccncc3)ccc2F)cc1 [Example 7, 1-(2-fluoro-5-(2-methyl-4-(pyridin-4-yl)thiazol-5-yl)phenyl)-3-p-tolylurea] | 1 to 10 µM | 0.1 to 1 µM | ≤ 0.1 µM
Cc1ccc(NC(=O)Nc2cccc(-c3sc(C)nc3-c3ccnc(N)c3)c2)cc1 [Example 20, 1-(3-(4-(2-aminopyridin-4-yl)-2-methylthiazol-5-yl)phenyl)-3-p-tolylurea] | 1 to 10 µM |  | ≤ 0.1 µM
Cc1nc(-c2ccnc(N)c2)c(-c2cccc(NC(=O)Nc3ccc(Cl)cc3)c2)s1 [Example 21, 1-(3-(4-(2-aminopyridin-4-yl)-2-methylthiazol-5-yl)phenyl)-3-(4-chlorophenyl)urea] | 1 to 10 µM |  | ≤ 0.1 µM
Cc1nc(-c2ccnc(N)c2)c(-c2ccc(F)c(NC(=O)Nc3ccc(Cl)cc3)c2)s1 [Example 22, 1-(5-(4-(2-aminopyridin-4-yl)-2-methylthiazol-5-yl)-2-fluorophenyl)-3-(4-chlorophenyl)urea] | 1 to 10 µM |  | ≤ 0.1 µM
Cc1nc(-c2ccnc(N)c2)c(-c2cccc(NC(=O)Nc3ccc(C(F)(F)F)cc3)c2F)s1 [Example 24, 1-(3-(4-(2-aminopyridin-4-yl)-2-methylthiazol-5-yl)-2-fluorophenyl)-3-(4-(trifluoromethyl)phenyl)urea] | 0.1 to 1 µM |  | 0.1 to 1 µM
Cc1nc(-c2ccnc(N)c2)c(-c2cc(NC(=O)Nc3ccc(C(F)(F)F)cc3)c(F)cc2F)s1 [Example 25, 1-(5-(4-(2-aminopyridin-4-yl)-2-methylthiazol-5-yl)-2,4-difluorophenyl)-3-(4-(trifluoromethyl)phenyl)urea] | 1 to 10 µM |  | ≤ 0.1 µM
Cc1nc(-c2ccnc(N)c2)c(-c2cccc(NC(=O)Nc3ccc(C(F)(F)F)cc3)c2)s1 [Example 26, 1-(3-(4-(2-aminopyridin-4-yl)-2-methylthiazol-5-yl)phenyl)-3-(4-(trifluoromethyl)phenyl)urea] | > 10 µM |  | ≤ 0.1 µM
O=C(Nc1ccc(Cl)cc1)Nc1cccc(-c2sc(N3CCOCC3)nc2-c2ccncc2)c1 [Example 33, 1-(4-chlorophenyl)-3-(3-(2-morpholino-4-(pyridin-4-yl)thiazol-5-yl)phenyl)urea] | 1 to 10 µM |  | ≤ 0.1 µM
O=C(Nc1ccc(Cl)cc1)Nc1cccc(-c2sc(NCCN3CCOCC3)nc2-c2ccncc2)c1 [Example 34, 1-(4-chlorophenyl)-3-(3-(2-(2-morpholinoethylamino)-4-(pyridin-4-yl)thiazol-5-yl)phenyl)urea] | 1 to 10 µM |  | ≤ 0.1 µM
O=C(Nc1ccc(C(F)(F)F)cc1)Nc1cc(-c2sc(NCCN3CCOCC3)nc2-c2ccncc2)ccc1F [Example 35, 1-(2-fluoro-5-(2-(2-morpholinoethylamino)-4-(pyridin-4-yl)thiazol-5-yl)phenyl)-3-(4-(trifluoromethyl)phenyl)urea] | 0.1 to 1 µM |  | ≤ 0.1 µM
O=C(Nc1ccc(C(F)(F)F)cc1)Nc1cccc(-c2sc(NCCN3CCOCC3)nc2-c2ccncc2)c1 [Example 37, 1-(3-(2-(2-morpholinoethylamino)-4-(pyridin-4-yl)thiazol-5-yl)phenyl)-3-(4-(trifluoromethyl)phenyl)urea] | 1 to 10 µM |  | ≤ 0.1 µM
Cc1nc(-c2ccncc2)c(-c2cccc(NS(=O)(=O)c3cc(F)ccc3F)c2)s1 [Example 41, 2,5-Difluoro-N-[3-(2-methyl-4-pyridin-4-yl-thiazol-5-yl)-phenyl]-benzenesulfonamide] | 1 to 10 µM |  | ≤ 0.1 µM
Cc1ccc(NC(=O)Cc2cccc(-c3sc(C)nc3-c3ccncc3)c2)cc1 [Example 47, 2-(3-(2-methyl-4-(pyridin-4-yl)thiazol-5-yl)phenyl)-N-p-tolylacetamide] | > 10 µM |  | ≤ 0.1 µM
CCn1cc(-c2ccc(F)c(NC(=O)Nc3ccc(Cl)cc3)c2)c(-c2ccncc2)n1 [Example 48, 1-(4-chlorophenyl)-3-(5-(1-ethyl-3-(pyridin-4-yl)-1H-pyrazol-4-yl)-2-fluorophenyl)urea] | 1 to 10 µM |  | ≤ 0.1 µM
CCn1cc(-c2cccc(NC(=O)Nc3ccc(Cl)cc3)c2F)c(-c2ccncc2)n1 [Example 49, 1-(4-chlorophenyl)-3-(3-(1-ethyl-3-(pyridin-4-yl)-1H-pyrazol-4-yl)-2-fluorophenyl)urea] | 0.1 to 1 µM |  | ≤ 0.1 µM
CCn1cc(-c2cccc(NC(=O)Nc3ccc(C(F)(F)F)cc3)c2F)c(-c2ccncc2)n1 [Example 50, 1-(3-(1-ethyl-3-(pyridin-4-yl)-1H-pyrazol-4-yl)-2-fluorophenyl)-3-(4-(trifluoromethyl)phenyl)urea] | 0.1 to 1 µM | 1 to 10 µM | ≤ 0.1 µM
CCn1cc(-c2cccc(NC(=O)Nc3ccc(S(C)(=O)=O)cc3)c2)c(-c2ccncc2)n1 [Example 51, 1-(3-(1-ethyl-3-(pyridin-4-yl)-1H-pyrazol-4-yl)phenyl)-3-(4-(methylsulfonyl)phenyl)urea] | 1 to 10 µM |  | ≤ 0.1 µM
CCn1cc(-c2cccc(NC(=O)Nc3ccc(C(F)(F)F)cc3)c2)c(-c2ccncc2)n1 [Example 52, 1-(3-(1-ethyl-3-(pyridin-4-yl)-1H-pyrazol-4-yl)phenyl)-3-(4-(trifluoromethyl)phenyl)urea] | ≤ 0.1 µM | 0.1 to 1 µM | ≤ 0.1 µM
CCn1cc(-c2cccc(N3CCN(c4ccc(C(F)(F)F)cc4)C3=O)c2)c(-c2ccncc2)n1 [Example 53, 1-(3-(1-ethyl-3-(pyridin-4-yl)-1H-pyrazol-4-yl)phenyl)-3-(4-(trifluoromethyl)phenyl)imidazolidin-2-one] | 1 to 10 µM |  | ≤ 0.1 µM
CCn1cc(-c2cccc(NC(=O)Nc3ccc(S(=O)(=O)CC)cc3)c2)c(-c2ccncc2)n1 [Example 54, 1-(3-(1-ethyl-3-(pyridin-4-yl)-1H-pyrazol-4-yl)phenyl)-3-(4-(ethylsulfonyl)phenyl)urea] | 1 to 10 µM |  | ≤ 0.1 µM
CCn1cc(-c2cccc(NC(=O)Nc3cccc(S(C)(=O)=O)c3)c2)c(-c2ccncc2)n1 [Example 55, 1-(3-(1-ethyl-3-(pyridin-4-yl)-1H-pyrazol-4-yl)phenyl)-3-(3-(methylsulfonyl)phenyl)urea] | > 10 µM |  | ≤ 0.1 µM
CCn1cc(-c2cccc(NC(=O)Nc3ccc(S(=O)(=O)NC)cc3)c2)c(-c2ccncc2)n1 [Example 56, 4-(3-(3-(1-ethyl-3-(pyridin-4-yl)-1H-pyrazol-4-yl)phenyl)ureido)-N-methylbenzenesulfonamide] | > 10 µM |  | ≤ 0.1 µM
CCn1cc(-c2cccc(NC(=O)Nc3ccc(OC)cc3)c2)c(-c2ccncc2)n1 [Example 57, 1-(3-(1-ethyl-3-(pyridin-4-yl)-1H-pyrazol-4-yl)phenyl)-3-(4-methoxyphenyl)urea] | ≤ 0.1 µM |  | ≤ 0.1 µM
CCn1cc(-c2cccc(NC(=O)Nc3ccc(S(=O)(=O)N4CCOCC4)cc3)c2)c(-c2ccncc2)n1 [Example 59, 1-(3-(1-ethyl-3-(pyridin-4-yl)-1H-pyrazol-4-yl)phenyl)-3-(4-(morpholinosulfonyl)phenyl)urea] | > 10 µM |  | ≤ 0.1 µM
CCn1cc(-c2cccc(N(O)C(=O)Nc3ccc(C(F)(F)F)cc3)c2)c(-c2ccncc2)n1 [Example 63, 1-(3-(1-ethyl-3-(pyridin-4-yl)-1H-pyrazol-4-yl)phenyl)-1-hydroxy-3-(4-(trifluoromethyl)phenyl)urea] | 1 to 10 µM |  | ≤ 0.1 µM
